System: NSC
Test: Neurogenic activity in human NSC assessed as increase in cells measured as ATP level after 4 days by Cell titre glo assay
Assay type: functional

SMILES: O=C1C(c2cccc(Cl)c2)CCN1c1ccc(-c2cn[nH]c2)cc1 (stereo not drawn)
- EC150: 0.2304 µM

SMILES: O=C1C(c2ccc(Cl)cc2)CCN1c1ccc(-c2cn[nH]c2)cc1 (stereo not drawn)
- EC150: 0.384 µM

SMILES: COc1cc(N2CCC(c3ccccc3Cl)C2=O)ccc1-c1cnco1 (stereo not drawn)
- EC150: 0.6783 µM

SMILES: COc1cccc(CN2CCN(c3ccc(-c4cn[nH]c4)c(F)c3)C2=O)c1
- EC150: 0.0157 µM

SMILES: COc1cccc(CC2CCN(c3ccc(-c4cn[nH]c4)c(OC)c3)C2=O)c1 (stereo not drawn)
- EC150: 0.0239 µM

SMILES: COc1cccc(C2CCN(c3ccc(-c4cn[nH]c4)cc3)C2=O)c1 (stereo not drawn)
- EC150: 0.0405 µM

SMILES: CCOc1cccc(CN2CCN(c3ccc(-c4cn[nH]c4)c(OC)c3)C2=O)c1
- EC150: 0.0739 µM

SMILES: COc1cc(N2CCCN(Cc3ccccc3Cl)C2=O)ccc1-c1cn[nH]c1
- EC150: 1.9918 µM

SMILES: O=C1C(c2ccc(F)cc2)CCN1c1ccc(-c2cn[nH]c2)cc1 (stereo not drawn)
- EC150: 0.0417 µM

SMILES: COc1cc(N2CCN(Cc3cccc(OC(F)(F)F)c3)C2=O)ccc1-c1cn[nH]c1
- EC150: 0.0092 µM

SMILES: CCOc1cc(N2CCN(CCc3ccccc3OC)C2=O)ccc1-c1cn[nH]c1
- EC150: 1.9784 µM

SMILES: CCC1(c2ccccc2)CCN(c2ccc(-c3cnco3)c(OC)c2)C1=O (stereo not drawn)
- EC150: 3.2257 µM

SMILES: COc1cc(N2CCN(Cc3ccncc3)C2=O)ccc1-c1cn[nH]c1
- EC150: 0.042 µM

SMILES: COc1cc(N2CCC(c3cccc(F)c3)C2=O)ccc1-c1cn[nH]c1 (stereo not drawn)
- EC150: 0.0776 µM

SMILES: COc1cc(N2CCN(Cc3cccc(C(F)(F)F)c3)C2=O)ccc1-c1cn[nH]c1
- EC150: 0.0086 µM

SMILES: CCOc1cc(N2CCN(Cc3cccc(OC)c3)C2=O)ccc1-c1cn[nH]c1
- EC150: 0.8349 µM

SMILES: COc1cc(N2CCC(c3ccccc3)C2=O)ccc1-c1cnco1 (stereo not drawn)
- EC150: 0.4712 µM

SMILES: CCOc1cc(N2CCN(CCc3ccccc3Cl)C2=O)ccc1-c1cn[nH]c1
- EC150: 0.1358 µM
